Molecular target: PIK3CD (Human) (UniProt O00329)
Assay: Enzyme Assay

PIK3CD (Human), sequence (O00329 whole entry, looked up): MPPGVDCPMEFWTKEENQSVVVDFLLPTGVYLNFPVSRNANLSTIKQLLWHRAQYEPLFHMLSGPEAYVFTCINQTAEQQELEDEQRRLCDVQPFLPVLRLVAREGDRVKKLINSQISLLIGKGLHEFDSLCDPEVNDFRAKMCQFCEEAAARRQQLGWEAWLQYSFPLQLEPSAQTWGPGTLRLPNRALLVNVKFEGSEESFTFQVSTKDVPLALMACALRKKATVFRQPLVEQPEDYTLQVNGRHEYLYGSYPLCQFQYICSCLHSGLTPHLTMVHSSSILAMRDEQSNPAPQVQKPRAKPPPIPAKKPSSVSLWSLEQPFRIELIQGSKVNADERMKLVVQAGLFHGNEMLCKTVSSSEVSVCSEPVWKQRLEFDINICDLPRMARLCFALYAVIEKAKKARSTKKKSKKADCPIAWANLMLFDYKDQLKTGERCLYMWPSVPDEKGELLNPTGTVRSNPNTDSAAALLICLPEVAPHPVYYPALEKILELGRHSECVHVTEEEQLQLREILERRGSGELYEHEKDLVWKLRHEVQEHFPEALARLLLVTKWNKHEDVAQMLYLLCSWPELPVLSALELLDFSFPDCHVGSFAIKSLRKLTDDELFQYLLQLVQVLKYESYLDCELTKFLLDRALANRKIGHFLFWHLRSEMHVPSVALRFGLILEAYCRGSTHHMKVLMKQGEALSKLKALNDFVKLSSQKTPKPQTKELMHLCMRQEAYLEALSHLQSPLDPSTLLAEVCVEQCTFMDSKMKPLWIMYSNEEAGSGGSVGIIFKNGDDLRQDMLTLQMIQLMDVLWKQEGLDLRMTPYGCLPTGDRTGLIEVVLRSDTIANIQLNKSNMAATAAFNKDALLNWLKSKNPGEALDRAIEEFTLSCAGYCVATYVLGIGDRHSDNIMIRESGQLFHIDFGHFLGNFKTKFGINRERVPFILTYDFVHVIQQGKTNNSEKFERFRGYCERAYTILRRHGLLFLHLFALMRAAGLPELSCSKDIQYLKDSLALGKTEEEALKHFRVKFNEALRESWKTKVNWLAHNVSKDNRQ

| IC50 [nM] | SMILES |
| --- | --- |
| 10 to 50 | C[C@H](Nc1nc(N)nc(N)c1C#N)c1nc2c(F)ccc(Cl)c2c(=O)n1-c1cc(F)cc(C#N)c1 |
| ≤ 1 | Cc1ccc(Cl)c2c(=O)n(-c3cccc(Cl)c3)c([C@H](C)Nc3nc(N)nc(N)c3C#N)nc12 |
| ≤ 1 | Cc1ccc(F)c2nc([C@H](C)Nc3nc(N)nc(N)c3C#N)n(-c3ccccc3)c(=O)c12 |
| ≤ 1 | Cc1ccc(Cl)c2c(=O)n(-c3ccccc3)c([C@H](C)Nc3nc(N)nc(N)c3C#N)nc12 |
| 1 to 10 | Cc1ccc(F)c2c(=O)n(-c3ccccc3)c([C@H](C)Nc3nc(N)nc(N)c3C#N)nc12 |
| 1 to 10 | C[C@H](Nc1nc(N)nc(N)c1C#N)c1nc2c(C#N)cccc2c(=O)n1-c1cccc(C(F)F)c1 |
| 1 to 10 | C[C@H](Nc1nc(N)nc(N)c1C#N)c1nc2cccc(C#N)c2c(=O)n1-c1cccc(F)c1 |
| 10 to 50 | C[C@H](Nc1nc(N)nc(N)c1C#N)c1nc2c(F)ccc(F)c2c(=O)n1-c1cccc(C#N)c1 |
| 10 to 50 | C[C@H](Nc1nc(N)nc(N)c1C#N)c1nc2cccc(F)c2c(=O)n1-c1cc(Cl)cc(Cl)c1 |
| ≤ 1 | Cc1cccc2c(=O)n(-c3cccc(Cl)c3)c([C@H](C)Nc3nc(N)nc(N)c3C#N)nc12 |
| 1 to 10 | Cc1ccc(F)c2nc([C@H](C)Nc3nc(N)nc(N)c3C#N)n(-c3cc(F)cc(C#N)c3)c(=O)c12 |
| 1 to 10 | C[C@H](Nc1nc(N)nc(N)c1C#N)c1nc2cccc(Cl)c2c(=O)n1-c1cccc(C(F)(F)F)c1 |
| 1 to 10 | C[C@H](Nc1nc(N)nc(N)c1C#N)c1nc2cccc(F)c2c(=O)n1-c1cccc(CC(F)F)c1 |
| 1 to 10 | C[C@H](Nc1nc(N)nc(N)c1C#N)c1nc2c(F)ccc(Cl)c2c(=O)n1-c1cccc(C#N)c1 |
| 10 to 50 | C[C@H](Nc1nc(N)nc(N)c1C#N)c1nc2cccc(F)c2c(=O)n1-c1cccc(C#N)c1 |
| 1 to 10 | Cc1ccc(F)c2c(=O)n(-c3cc(F)cc(F)c3)c([C@H](C)Nc3nc(N)nc(N)c3C#N)nc12 |
| 1 to 10 | CC[C@H](Nc1nc(N)nc(N)c1C#N)c1nc2cccc(F)c2c(=O)n1-c1cccc(F)c1 |

| IC50 [nM] | SMILES |
| --- | --- |
| ≤ 1 | Cc1ccc(F)c2nc([C@H](C)Nc3nc(N)nc(N)c3C#N)n(-c3cc(F)cc(F)c3)c(=O)c12 |
| 1 to 10 | C[C@H](Nc1nc(N)nc(N)c1C#N)c1nc2c(C#N)cc(F)cc2c(=O)n1-c1cccc(F)c1 |
| 1 to 10 | C[C@H](Nc1nc(N)nc(N)c1C#N)c1nc2cccc(C#N)c2c(=O)n1-c1cc(F)cc(F)c1 |
| 10 to 50 | CCc1cccc2c(=O)n(-c3cc(F)cc(F)c3)c([C@H](C)Nc3nc(N)nc(N)c3C#N)nc12 |
| 1 to 10 | C[C@H](Nc1nc(N)nc(N)c1C#N)c1nc2cccc(Cl)c2c(=O)n1-c1cc(F)cc(C#N)c1 |
| 1 to 10 | C[C@H](Nc1nc(N)nc(N)c1C#N)c1nc2c(F)cccc2c(=O)n1-c1cc(F)cc(F)c1 |
| ≤ 1 | Cc1ccc(F)c2nc([C@H](C)Nc3nc(N)nc(N)c3C#N)n(-c3cccc(C#N)c3)c(=O)c12 |
| 10 to 50 | C[C@H](Nc1nc(N)nc(N)c1C#N)c1nc2cccc(F)c2c(=O)n1-c1cc(F)cc(C(F)F)c1 |
| 1 to 10 | C[C@H](Nc1nc(N)nc(N)c1C#N)c1nc2c(F)ccc(C#N)c2c(=O)n1-c1ccccc1 |
| ≤ 1 | C[C@H](Nc1nc(N)nc(N)c1C#N)c1nc2cccc(Cl)c2c(=O)n1-c1cccc(F)c1 |
| 10 to 50 | CC[C@H](Nc1nc(N)nc(N)c1C#N)c1nc2c(F)ccc(F)c2c(=O)n1-c1cccc(C#N)c1 |
| 1 to 10 | C[C@H](Nc1nc(N)nc(N)c1C#N)c1nc2c(C#N)cccc2c(=O)n1-c1cc(F)cc(F)c1 |
| 10 to 50 | Cc1ccc(F)c2c(=O)n(-c3cccc(C#N)c3)c([C@H](C)Nc3nc(N)nc(N)c3C#N)nc12 |
| 1 to 10 | C[C@H](Nc1nc(N)nc(N)c1C#N)c1nc2c(C#N)cccc2c(=O)n1-c1ccccc1 |
| 1 to 10 | C[C@H](Nc1nc(N)nc(N)c1C#N)c1nc2cccc(F)c2c(=O)n1-c1ccccc1 |
| 1 to 10 | C[C@H](Nc1nc(N)nc(N)c1C#N)c1nc2cccc(C(F)F)c2c(=O)n1-c1cc(F)cc(F)c1 |
| 1 to 10 | C[C@H](Nc1nc(N)nc(N)c1C#N)c1nc2c(F)ccc(F)c2c(=O)n1-c1cc(F)cc(F)c1 |

Second part, the compound before the results:

| SMILES | IC50 [nM] |
| --- | --- |
| COc1cc(OC)cc(-n2c([C@H](C)Nc3nc(N)nc(N)c3C#N)nc3cccc(Cl)c3c2=O)c1 | 1 to 10 |
| C[C@H](Nc1nc(N)nc(N)c1C#N)c1nc2cccc(C(N)=O)c2c(=O)n1-c1cc(F)cc(F)c1 | 10 to 50 |
| C[C@H](Nc1nc(N)nc(N)c1C#N)c1nc2c(F)cc(F)cc2c(=O)n1-c1cc(F)cc(F)c1 | 10 to 50 |
| C[C@H](Nc1nc(N)nc(N)c1Cl)c1cc2cccc(Cl)c2c(=O)n1-c1ccccc1 | ≤ 1 |
| C[C@H](Nc1nc(N)nc(N)c1C#N)c1nc2cccc(C(F)F)c2c(=O)n1-c1ccccc1 | ≤ 1 |
| CC[C@H](Nc1nc(N)nc(N)c1C#N)c1nc2ccc(F)c(F)c2c(=O)n1-c1cc(F)cc(F)c1 | 10 to 50 |
| C[C@H](Nc1nc(N)nc(N)c1C#N)c1nc2c(C(F)F)cccc2c(=O)n1-c1ccccc1 | 10 to 50 |
| C[C@H](Nc1nc(N)nc(N)c1C#N)c1nc2cccc(S(C)(=O)=O)c2c(=O)n1-c1ccccc1 | 1 to 10 |
| C[C@H](Nc1nc(N)nc(N)c1Cl)c1nc2cccc(S(C)(=O)=O)c2c(=O)n1-c1cccc(F)c1 | 1 to 10 |
| C[C@H](Nc1nc(N)nc(N)c1C#N)c1nc2cccc(S(C)(=O)=O)c2c(=O)n1-c1cc(F)cc(F)c1 | 1 to 10 |
| CC(C)[C@H](Nc1nc(N)nc(N)c1C#N)c1nc2cccc(Cl)c2c(=O)n1-c1ccccc1 | ≤ 1 |
| C[C@H](Nc1nc(N)nc(N)c1C#N)c1nc2c(Cl)cccc2c(=O)n1-c1ccccc1 | 1 to 10 |
| CC[C@H](Nc1nc(N)nc(N)c1C#N)c1nc2ccccc2c(=O)n1-c1cc(F)cc(F)c1 | 10 to 50 |
| CC[C@H](Nc1nc(N)nc(N)c1C#N)c1nc2cccc(Cl)c2c(=O)n1-c1cc(F)cc(C(F)F)c1 | 1 to 10 |
| C[C@H](Nc1nc(N)nc(N)c1C#N)c1nc2ccc(F)c(Cl)c2c(=O)n1-c1cc(F)cc(F)c1 | 1 to 10 |
| C[C@H](Nc1nc(N)nc(N)c1C#N)c1nc2cccc(Cl)c2c(=O)n1-c1cccc(CC(F)F)c1 | 1 to 10 |

| SMILES | IC50 [nM] |
| --- | --- |
| CC[C@H](Nc1nc(N)nc(N)c1C#N)c1nc2cccc(F)c2c(=O)n1-c1cccc(C(F)(F)F)c1 | 10 to 50 |
| Cc1cccc2nc([C@H](C)Nc3nc(N)nc(N)c3C#N)n(-c3ccccc3)c(=O)c12 | ≤ 1 |
| CC(C)[C@H](Nc1nc(N)nc(N)c1C#N)c1nc2cccc(Cl)c2c(=O)n1-c1cc(F)cc(F)c1 | 1 to 10 |
| C[C@H](Nc1nc(N)nc(N)c1C#N)c1nc2cccc(Cl)c2c(=O)n1-c1cc(Cl)cc(C(F)F)c1 | 1 to 10 |
| C[C@H](Nc1nc(N)nc(N)c1C#N)c1nc2cccc(O)c2c(=O)n1-c1ccccc1 | ≤ 1 |
| CC[C@H](Nc1nc(N)nc(N)c1C#N)c1nc2cccc(C(F)F)c2c(=O)n1-c1cc(F)cc(F)c1 | 1 to 10 |
| C[C@H](Nc1nc(N)nc(N)c1C#N)c1nc2c(C#N)cc(F)cc2c(=O)n1-c1cc(F)cc(F)c1 | 10 to 50 |
| CCC[C@H](Nc1nc(N)nc(N)c1C#N)c1nc2cccc(F)c2c(=O)n1-c1cc(F)cc(F)c1 | 1 to 10 |
| CC(C)C[C@H](Nc1nc(N)nc(N)c1C#N)c1nc2cccc(Cl)c2c(=O)n1-c1cccc(F)c1 | 1 to 10 |
| C[C@H](Nc1nc(N)nc(N)c1Cl)c1nc2cccc(Cl)c2c(=O)n1-c1ccccc1 | ≤ 1 |
| C[C@H](Nc1nc(N)nc(N)c1C#N)c1nc2cccc(C(F)F)c2c(=O)n1-c1cc(F)cc(C(F)F)c1 | 1 to 10 |
| C[C@H](Nc1nc(N)nc(N)c1C#N)c1nc2c(Cl)cc(F)cc2c(=O)n1-c1cc(F)cc(F)c1 | 1 to 10 |
| C[C@H](Nc1ncnc(N)c1C#N)c1nc2cccc(Cl)c2c(=O)n1-c1ccccc1 | ≤ 1 |
| CC[C@H](Nc1nc(N)nc(N)c1C#N)c1nc2c(C)cccc2c(=O)n1-c1cc(F)cc(F)c1 | 10 to 50 |
| CC[C@H](Nc1nc(N)nc(N)c1C#N)c1nc2ccc(F)cc2c(=O)n1-c1cc(F)cc(F)c1 | 10 to 50 |

Reference: the Kinase Knowledgebase extract (Sharma et al. 2016)
